The subject of this experiment is BDF1 mice, Adenocarcinoma 755 s.c., tumor weight T/C. The experiment is described as follows: NCI In Vivo Anticancer Drug Screen. Data for tumor model Adenocarcinoma 755 (subcutaneous) in B6D2F1 (BDF1) mice. The settings on record: endpoint: mean tumor weight, higher = larger tumour. As for the experimental part: The antitumor activity of compounds was measured in mice bearing transplantable tumors. Survival or tumor size were measured and the results are expressed as the measurement made in the treated group (T) divided by the measurement made in the vehicle treated control group (C). The tumor model used in this assay is Adenocarcinoma 755 (subcutaneous) in B6D2F1 (BDF1) mice

Where [1] appears, read: dose: 200.0 mg/kg/injection, schedule: Q01DX011 (ip), vehicle: methylcellulose (MC).
The mark [2] stands for this setting: dose: 7.5 mg/kg/injection, schedule: Q01DX011 (ip), vehicle: carboxymethylcellulose (CMC).
Where [3] appears, read: dose: 12.5 mg/kg/injection, schedule: Q01DX011 (ip), vehicle: saline.
Setting [4] is: dose: 25.0 mg/kg/injection, schedule: Q01DX011 (ip), vehicle: saline.

The structures appear in SMILES notation. Several values for one entry are separate records, joined by “and”; a condition that tells them apart may be missing. Equal values may be shown once.

In general, T/C refers to the ratio of treated to control.

As for `CCCCn1cnc2c(SCc3ccc(Cl)cc3Cl)nc(N)nc21`, the T/C reads like this: (dose: 50.0 mg/kg/injection, schedule: Q01DX011 (ip), vehicle: methylcellulose (MC)) 61 % of control; (dose: 100.0 mg/kg/injection, schedule: Q01DX011 (ip), vehicle: methylcellulose (MC)) 46 % of control; under setting [1], 35 % of control; (dose: 400.0 mg/kg/injection, schedule: Q01DX011 (ip), vehicle: methylcellulose (MC)) 5 % of control.

As to `Nc1ncnc2[nH]ncc12`, the T/C by setting is: (dose: 0.94 mg/kg/injection, schedule: Q01DX011 (ip), vehicle: carboxymethylcellulose (CMC)) 78 % of control; (dose: 1.1 mg/kg/injection, schedule: Q01DX011 (ip), vehicle: carboxymethylcellulose (CMC)) 69 % of control; (dose: 1.41 mg/kg/injection, schedule: Q01DX011 (ip), vehicle: carboxymethylcellulose (CMC)) 73 % of control; (dose: 1.5 mg/kg/injection, schedule: Q01DX011 (ip), vehicle: carboxymethylcellulose (CMC)) 67 % of control; (dose: 1.88 mg/kg/injection, schedule: Q01DX011 (ip), vehicle: carboxymethylcellulose (CMC)) 54 % of control and 61 % of control; (dose: 2.5 mg/kg/injection, schedule: Q01DX011 (ip), vehicle: carboxymethylcellulose (CMC)) 32 % of control. Moreover, the T/C is, setting by setting: (dose: 3.1 mg/kg/injection, schedule: Q01DX011 (ip), vehicle: carboxymethylcellulose (CMC)) 74 % of control; (dose: 3.75 mg/kg/injection, schedule: Q01DX011 (ip), vehicle: carboxymethylcellulose (CMC)) 31 % of control and 36 % of control; (dose: 4.52 mg/kg/injection, schedule: Q01DX011 (ip), vehicle: carboxymethylcellulose (CMC)) 108 % of control; (dose: 5.65 mg/kg/injection, schedule: Q01DX011 (ip), vehicle: carboxymethylcellulose (CMC)) 50 % of control and 63 % of control; (dose: 6.2 mg/kg/injection, schedule: Q01DX011 (ip), vehicle: carboxymethylcellulose (CMC)) 6 % of control; under setting [2], 5 % of control and 6 % of control. The T/C (dose: 7.53 mg/kg/injection, schedule: Q01DX011 (ip), vehicle: carboxymethylcellulose (CMC)) was 36 % of control and the T/C (dose: 11.3 mg/kg/injection, schedule: Q01DX011 (ip), vehicle: carboxymethylcellulose (CMC)) is 31 % of control.

As to `CC1CCC(n2cnc3c(Cl)ncnc32)O1` (stereo not drawn), the T/C (dose: 3.7 mg/kg/injection, schedule: Q01DX011 (ip), vehicle: carboxymethylcellulose (CMC)) is 58 % of control; the T/C under setting [2] is 35 % of control; the T/C (dose: 15.0 mg/kg/injection, schedule: Q01DX011 (ip), vehicle: carboxymethylcellulose (CMC)) is 63 % of control; the T/C (dose: 30.0 mg/kg/injection, schedule: Q01DX011 (ip), vehicle: carboxymethylcellulose (CMC)) was 15 % of control and 23 % of control; the T/C (dose: 60.0 mg/kg/injection, schedule: Q01DX011 (ip), vehicle: carboxymethylcellulose (CMC)) is 5 % of control.

Take `O=C(O)Cc1ccc(C2CCCCC2)cc1`: the T/C is, setting by setting: (dose: 37.5 mg/kg/injection, schedule: Q01DX011 (ip), vehicle: carboxymethylcellulose (CMC)) 164 % of control; (dose: 75.0 mg/kg/injection, schedule: Q01DX011 (ip), vehicle: carboxymethylcellulose (CMC)) 81 % of control; (dose: 150.0 mg/kg/injection, schedule: Q01DX011 (ip), vehicle: carboxymethylcellulose (CMC)) 120 % of control; (dose: 300.0 mg/kg/injection, schedule: Q01DX011 (ip), vehicle: carboxymethylcellulose (CMC)) 53 % of control.

As to `Cc1cnc(SCc2ccc(Cl)cc2Cl)nc1N(C)C`, under “dose: 62.0 mg/kg/injection, schedule: Q01DX011 (ip), vehicle: methylcellulose (MC)”, the T/C is 55 % of control.

As to `O=P1(N(CCCl)CCCl)NCCCO1` (stereo not drawn), the T/C is 87 % of control (dose: 6.25 mg/kg/injection, schedule: Q01DX011 (ip), vehicle: saline); 59 % of control (dose: 7.13 mg/kg/injection, schedule: Q01DX011 (ip), vehicle: carboxymethylcellulose (CMC)); 92 % of control (dose: 7.66 mg/kg/injection, schedule: Q01DX011 (ip), vehicle: carboxymethylcellulose (CMC)); 92 % of control (dose: 10.22 mg/kg/injection, schedule: Q01DX011 (ip), vehicle: carboxymethylcellulose (CMC)); 46 % of control (dose: 11.4 mg/kg/injection, schedule: Q01DX011 (ip), vehicle: carboxymethylcellulose (CMC)); 52 % of control (dose: 12.25 mg/kg/injection, schedule: Q01DX011 (ip), vehicle: carboxymethylcellulose (CMC)). The T/C is, setting by setting: (dose: 12.5 mg/kg/injection, schedule: Q01DX011 (ip), vehicle: carboxymethylcellulose (CMC)) 57 % of control; under setting [3], 36 % of control and 60 % of control; (dose: 14.25 mg/kg/injection, schedule: Q01DX011 (ip), vehicle: carboxymethylcellulose (CMC)) 22 % of control and 29 % of control; (dose: 19.0 mg/kg/injection, schedule: Q01DX011 (ip), vehicle: carboxymethylcellulose (CMC)) 22 % of control; (dose: 20.43 mg/kg/injection, schedule: Q01DX011 (ip), vehicle: carboxymethylcellulose (CMC)) 66 % of control; (dose: 25.0 mg/kg/injection, schedule: Q01DX011 (ip), vehicle: carboxymethylcellulose (CMC)) 8 % of control. The T/C is 30 % of control and 55 % of control under setting [4]; 4 % of control and 15 % of control (dose: 28.5 mg/kg/injection, schedule: Q01DX011 (ip), vehicle: carboxymethylcellulose (CMC)); 6 % of control and 29 % of control (dose: 30.65 mg/kg/injection, schedule: Q01DX011 (ip), vehicle: carboxymethylcellulose (CMC)); 8 % of control and 17 % of control (dose: 50.0 mg/kg/injection, schedule: Q01DX011 (ip), vehicle: saline); 3 % of control (dose: 57.0 mg/kg/injection, schedule: Q01DX011 (ip), vehicle: carboxymethylcellulose (CMC)); 5 % of control (dose: 61.3 mg/kg/injection, schedule: Q01DX011 (ip), vehicle: carboxymethylcellulose (CMC)).

For the compound `CC/C(=C(\CC)c1ccc(OC)cc1)c1ccc(O)cc1`, the T/C (dose: 15.0 mg/kg/injection, schedule: Q01DX011 (sc), vehicle: steriod suspending solution) was 68 % of control; the T/C (dose: 30.0 mg/kg/injection, schedule: Q01DX011 (sc), vehicle: steriod suspending solution) is 69 % of control; the T/C (dose: 60.0 mg/kg/injection, schedule: Q01DX011 (sc), vehicle: steriod suspending solution) is 40 % of control; the T/C (dose: 120.0 mg/kg/injection, schedule: Q01DX011 (sc), vehicle: other) was 37 % of control and 42 % of control; the T/C (dose: 120.0 mg/kg/injection, schedule: Q01DX011 (sc), vehicle: steriod suspending solution) was 26 % of control.

As for `CC(C)CCn1cnc2c(SCC(=O)O)nc(N)nc21`, the T/C by setting is: (dose: 20.0 mg/kg/injection, schedule: Q01DX011 (ip), vehicle: methylcellulose (MC)) 46 % of control; (dose: 65.0 mg/kg/injection, schedule: Q01DX011 (ip), vehicle: methylcellulose (MC)) 56 % of control; under setting [1], 55 % of control.

In the case of `c1nc(N2CC2)c2cnn(C3CCCCO3)c2n1` (stereo not drawn), the T/C (dose: 1.5 mg/kg/injection, schedule: Q01DX011 (ip), vehicle: other) was 101 % of control; the T/C (dose: 3.0 mg/kg/injection, schedule: Q01DX011 (ip), vehicle: other) was 102 % of control; the T/C (dose: 6.0 mg/kg/injection, schedule: Q01DX011 (ip), vehicle: other) was 81 % of control; the T/C (dose: 12.0 mg/kg/injection, schedule: Q01DX011 (ip), vehicle: other) was 99 % of control; the T/C under setting [3] was 30 % of control; the T/C (dose: 25.0 mg/kg/injection, schedule: Q01DX011 (ip), vehicle: other) is 113 % of control. Also, the T/C under setting [4] was 45 % of control.

Consider `C/C(=N\NC(=O)c1ccncc1)c1ccccc1Cl`, for which the T/C was 56 % of control (dose: 30.0 mg/kg/injection, schedule: Q01DX011 (ip), vehicle: methylcellulose (MC)) and 61 % of control (dose: 60.0 mg/kg/injection, schedule: Q01DX011 (ip), vehicle: methylcellulose (MC)).

The record behind these values is PubChem BioAssay AID180 (DTP/NCI, 2004).
